In one series the test system is RCC4/VHL. Description: XTT IC50 assay, selectivity RCC4 versus RCC4 with VHL-reintroduced. The format is cell-based, human. As to conditions: selectivity ratio of XTT IC50 values, RCC4 vs RCC4/VHL. In short, it runs like this: (§1)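 RCC4 parental and VHL-reintroduced RCC4/VHL cells (DMEM, 10% FCS) treated with serially diluted drug for four days. Viability by XTT (0.3 mg/mL) with N-methyl dibenzopyrazine methyl sulfate, 1–2 h at 37 °C, absorbance 450 nm; IC50 by linear interpolation.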
In general terms: Formazan colour is commonly taken as a measure of viable cells.

The next series concerns RCC4. As to the kind of experiment: XTT IC50 / viability assay, RCC4 cells. The format is cell-based, human. The following applies: Homo sapiens, RCC4, 96 h; XTT assay, four days. In a few lines: as §1

In turn, `N#Cc1cc(S(=O)(=O)NCc2ccc(C(=O)Nc3cccnc3)cc2)ccc1F` [Example 71, 4-((3-Cyano-4-fluorophenylsulfonamido)methyl)-N-(pyridin-3-yl)benzamide] registered a melting point of 211 to 213 °C.
On the same count and under the same terms, then `Cc1cc(C(=O)Nc2cccnc2)ccc1CNS(=O)(=O)c1ccc(C(C)(C)C)cc1` [Example 147, 4-({[(4-tert-Butylphenyl)sulfonyl]amino}methyl)-3-methyl-N-(3-pyridinyl)benzamide], with 203 to 205 °C; and `CCC(=O)Nc1cccc(S(=O)(=O)NCc2ccc(C(=O)Nc3cccnc3)cc2)c1` [Example 143, 4-[({[3-(Propionylamino)phenyl]sulfonyl}amino)methyl]-N-(3-pyridinyl)benzamide], with 215 to 218 °C.
On the same count and under the same terms, the same measure for `CC(C)(C)c1ccc(S(=O)(=O)NCc2ccc(C(=O)Nc3cccnc3)c(F)c2)cc1` [Example 146, 4-({[(4-tert-Butylphenyl)sulfonyl]amino}methyl)-2-fluoro-N-(3-pyridinyl)benzamide]: 185 to 187 °C.
Same read-out and setting: then `CC(C)(C)c1ccc(S(=O)(=O)NCc2ccc(C(=O)Nc3ccncc3)cc2)cc1` [Example 106, 4-((4-tert-Butylphenylsulfonamido)methyl)-N-(pyridin-4-yl)benzamide], with 261 to 263 °C.
`CC(C)(C)c1ccc(S(=O)(=O)NCc2ccc(C(=O)Nc3cccnc3)cc2F)cc1` [Example 148, 4-({[(4-tert-Butylphenyl)sulfonyl]amino}methyl)-3-fluoro-N-(3-pyridinyl)benzamide]: the melting point was in the range of 198 to 200 °C.
Regarding `N#Cc1cccc(S(=O)(=O)NCc2ccc(C(=O)Nc3cccnc3)cc2)c1` [Example 24, 4-((3-Cyanophenylsulfonamido)methyl)-N-(pyridin-3-yl)benzamide], the “Ratio (RCC4:RCC/VHL)” value in the series with RCC4/VHL is reported as “a (“a” reflects a ratio of RCC4/RCC-VHL+ ranging from 1 to 10)”. Also, the half-maximal inhibitory concentration (IC50) in the series with RCC4 fell in the range of 1 to 20 µM.
Taken in the same sequence, the figures for `CC(C)(C)c1ccc(S(=O)(=O)NCc2ccc(C(=O)Nc3cccnc3F)cc2)cc1` [Example 123, 4-({[(4-tert-Butylphenyl)sulfonyl]amino}methyl)-N-(2-fluoro-3-pyridinyl)benzamide] were “a (“a” reflects a ratio of RCC4/RCC-VHL+ ranging from 1 to 10)” and 1 to 20 µM.
Taken in the same sequence, the figures for `O=C(Nc1cccnc1)c1ccc(CNS(=O)(=O)c2ccc(N3CCOCC3)cc2)cc1` [Example 127, 4-[({[4-(4-Morpholinyl)phenyl]sulfonyl}amino)methyl]-N-(3-pyridinyl)benzamide] were “b (“b” reflects from 10 to 100)” and < 1 µM.
Take `COC1CCN(c2ccc(S(=O)(=O)NCc3ccc(C(=O)Nc4cccnc4)cc3)cc2)CC1` [Example 129, 4-[({[4-(4-Methoxy-1-piperidinyl)phenyl]sulfonyl}amino)methyl]-N-(3-pyridinyl)benzamide]: the “Ratio (RCC4:RCC/VHL)” value in the series with RCC4/VHL is given as “c (“c” reflects a ratio of >100)”. Also, in the series on RCC4, the half-maximal inhibitory concentration (IC50) was < 1 µM.
Taken in the same sequence, the figures for `Cc1nc(-c2cccc(S(=O)(=O)NCc3ccc(C(=O)Nc4cccnc4)cc3)c2)cs1` [Example 31, 4-[({[3-(2-Methyl-1,3-thiazol-4-yl)phenyl]sulfonyl}amino)methyl]-N-(3-pyridinyl)benzamide] were “b (“b” reflects from 10 to 100)” and 1 to 20 µM.
Taken in the same sequence, the figures for `O=C(Nc1cccnc1)c1ccc(CNS(=O)(=O)c2ccc(Cl)c(Cl)c2)cc1` [Example 70, 4-((3,4-Dichlorophenylsulfonamido)methyl)-N-(pyridin-3-yl)benzamide] were “b (“b” reflects from 10 to 100)” and 1 to 20 µM.
On to `CN(C(=O)c1ccc(CNS(=O)(=O)c2ccccc2)cc1)c1cccnc1` [Example 90, N-Methyl-4-{[(phenylsulfonyl)amino]methyl}-N-(3-pyridinyl)benzamide], for which the “Ratio (RCC4:RCC/VHL)” value with RCC4/VHL is “a (“a” reflects a ratio of RCC4/RCC-VHL+ ranging from 1 to 10)”. In the series with RCC4, the IC50 fell in the range of 1 to 20 µM.
Turning to `Cc1cccc(Nc2nc(-c3ccncc3)cs2)c1` [Compound E, reference compound], the “Ratio (RCC4:RCC/VHL)” value with RCC4/VHL is listed as “b (“b” reflects from 10 to 100)”. The compound further gave an IC50 in the series on RCC4 of 1 to 20 µM.
Consider `NCCOCCOCCOCCOCCOCCOCCCc1ccc(S(=O)(=O)NCc2ccc(C(=O)Nc3cccnc3)cc2)cc1` [Example 130, 4-[({[4-(21-Amino-4,7,10,13,16,19-hexaoxahenicos-1-yl)phenyl]sulfonyl}amino)methyl]-N-(3-pyridinyl)benzamide], for which the “Ratio (RCC4:RCC/VHL)” value in the series with RCC4/VHL is given as “a (“a” reflects a ratio of RCC4/RCC-VHL+ ranging from 1 to 10)”. In the series with RCC4, this compound yielded a half-maximal inhibitory concentration (IC50) of 1 to 20 µM.
For `O=C(Nc1cccnc1)c1ccc(CNS(=O)(=O)c2ccc(Br)cc2)cc1` [Example 45, 4-((4-Bromophenylsulfonamido)methyl)-N-(pyridin-3-yl)benzamide], in the series with RCC4/VHL, the “Ratio (RCC4:RCC/VHL)” value was “b (“b” reflects from 10 to 100)”. In addition, the IC50 in the series on RCC4 is 1 to 20 µM.
Regarding `O=C(Nc1cccnc1)c1ccc(CNS(=O)(=O)c2ccc(I)cc2)cc1` [Example 94, 4-((4-Iodophenylsulfonamido)methyl)-N-(pyridin-3-yl)benzamide], the “Ratio (RCC4:RCC/VHL)” value with RCC4/VHL is “a (“a” reflects a ratio of RCC4/RCC-VHL+ ranging from 1 to 10)”. This compound yielded an IC50 in the series with RCC4 of 1 to 20 µM.
Taken in the same sequence, the figures for `CCN(CC)Cc1ccc(S(=O)(=O)NCc2ccc(C(=O)Nc3cccnc3)cc2)cc1` [Example 78, 4-{[({4-[(Diethylamino)methyl]phenyl}sulfonyl)amino]methyl}-N-(3-pyridinyl)benzamide] were “c (“c” reflects a ratio of >100)” and < 1 µM.
Taken in the same sequence, the figures for `O=C(Nc1cccnc1)c1ccc(CNS(=O)(=O)c2ccc(CCCO)cc2)cc1` [Example 104, 4-[({[4-(3-Hydroxypropyl)phenyl]sulfonyl}amino)methyl]-N-(3-pyridinyl)benzamide] were “c (“c” reflects a ratio of >100)” and < 1 µM.
Taken in the same sequence, the figures for `CC(C)(C)c1ccc(S(=O)(=O)NCc2ccc(C(=O)Nc3ccc(N4CCOCC4)nc3)cc2)cc1` [Example 117, 4-({[(4-tert-Butylphenyl)sulfonyl]amino}methyl)-N-[6-(4-morpholinyl)-3-pyridinyl]benzamide] were “a (“a” reflects a ratio of RCC4/RCC-VHL+ ranging from 1 to 10)” and > 20 µM.
As to `O=C(Nc1cccnc1)c1ccc(CNS(=O)(=O)c2ccc(F)cc2)cc1` [Example 43, 4-((4-Fluorophenylsulfonamido)methyl)-N-(pyridin-3-yl)benzamide], in the series with RCC4/VHL, the “Ratio (RCC4:RCC/VHL)” value is recorded as “a (“a” reflects a ratio of RCC4/RCC-VHL+ ranging from 1 to 10)”. Moreover, the IC50 with RCC4 was 1 to 20 µM.
Taken in the same sequence, the figures for `Cc1ccc(S(=O)(=O)NCc2ccc(C(=O)Nc3cccnc3)cc2)cc1` [Example 36, 4-((4-Methylphenylsulfonamido)methyl)-N-(pyridin-3-yl)benzamide] were “b (“b” reflects from 10 to 100)” and 1 to 20 µM.
With `CN(C)CCCc1ccc(S(=O)(=O)NCc2ccc(C(=O)Nc3cccnc3)cc2)cc1` [Example 142, 4-{[({4-[3-(Dimethylamino)propyl]phenyl}sulfonyl)amino]methyl}-N-(3-pyridinyl)benzamide], the “Ratio (RCC4:RCC/VHL)” value in the series on RCC4/VHL is “b (“b” reflects from 10 to 100)”. In addition, the IC50 in the series on RCC4 is < 1 µM.
Take `CN1CCN(Cc2ccc(S(=O)(=O)NCc3ccc(C(=O)Nc4cccnc4)cc3)cc2)CC1` [Example 85, 4-{[({4-[(4-Methyl-1-piperazinyl)methyl]phenyl}sulfonyl)amino]methyl}-N-(3-pyridinyl)benzamide]: the “Ratio (RCC4:RCC/VHL)” value in the series on RCC4/VHL is reported as “c (“c” reflects a ratio of >100)”. Besides, in the series on RCC4, the IC50 is < 1 µM.
Taken in the same sequence, the figures for `O=C(Nc1cccnc1)c1ccc(CNS(=O)(=O)c2ccc(NCCCN3CCOCC3)cc2)cc1` [Example 131, 4-({[(4-{[3-(4-Morpholinyl)propyl]amino}phenyl)sulfonyl]amino}methyl)-N-(3-pyridinyl)benzamide] were “b (“b” reflects from 10 to 100)” and < 1 µM.
Taken in the same sequence, the figures for `O=C(Nc1cccnc1)c1ccc(CNS(=O)(=O)c2ccc3ccccc3c2)cc1` [Example 72, 4-((Naphthalene-2-sulfonamido)methyl)-N-(pyridin-3-yl)benzamide] were “b (“b” reflects from 10 to 100)” and 1 to 20 µM.
With `CCCc1ccc(S(=O)(=O)NCc2ccc(C(=O)Nc3cccnc3)cc2)cc1` [Example 37, 4-((4-Propylphenylsulfonamido)methyl)-N-(pyridin-3-yl)benzamide], the “Ratio (RCC4:RCC/VHL)” value in the series with RCC4/VHL was “b (“b” reflects from 10 to 100)”. Besides, in the series on RCC4, the IC50 was < 1 µM.
Taken in the same sequence, the figures for `COC1CCN(Cc2ccc(S(=O)(=O)NCc3ccc(C(=O)Nc4cccnc4)cc3)cc2)CC1` [Example 84, 4-{[({4-[(4-Methoxy-1-piperidinyl)methyl]phenyl}sulfonyl)amino]methyl}-N-(3-pyridinyl)benzamide] were “c (“c” reflects a ratio of >100)” and < 1 µM.
Turning to `O=C(Nc1cccnc1)c1ccc(CNS(=O)(=O)c2ccc(N3CCCCC3)cc2)cc1` [Example 128, 4-[({[4-(1-Piperidinyl)phenyl]sulfonyl}amino)methyl]-N-(3-pyridinyl)benzamide], the “Ratio (RCC4:RCC/VHL)” value in the series on RCC4/VHL is listed as “c (“c” reflects a ratio of >100)”. In addition, the IC50 with RCC4 was < 1 µM.
Taken in the same sequence, the figures for `O=C(Nc1cccnc1)c1ccc(CNS(=O)(=O)c2ccc(CN3CCCCC3)cc2)cc1` [Example 81, 4-[({[4-(1-Piperidinylmethyl)phenyl]sulfonyl}amino)methyl]-N-(3-pyridinyl)benzamide] were “b (“b” reflects from 10 to 100)” and < 1 µM.
Taken in the same sequence, the figures for `CC(C)(C)c1ccc(S(=O)(=O)NCc2ccc(C(=O)Nc3cnccc3Cl)cc2)cc1` [Example 112, 4-({[(4-tert-Butylphenyl)sulfonyl]amino}methyl)-N-(4-chloro-3-pyridinyl)benzamide] were “a (“a” reflects a ratio of RCC4/RCC-VHL+ ranging from 1 to 10)” and > 20 µM.

In general, melting point refers to the temperature of the solid-liquid transition. The IC50 is the concentration needed to halve the response being measured.
